Values after ≈ are worked out from the molar mass of the structure shown.
Columns and labels:
Escherichia coli [1] = assay: Antibacterial activity against Escherichia coli 14-1 expressing extended-spectrum beta-lactamase; format: functional
Enterococcus faecalis [2] = assay: Antibacterial activity against Enterococcus faecalis 14-5; format: functional
[3] = Cmax in Sprague-Dawley rat at 2 mg/kg, iv; format: ADME, organism-based; design: dose 2 mg/kg, route intravenous; conditions: in vivo
Escherichia coli [4] = assay: Antibacterial activity against Escherichia coli 14-2; format: functional
Staphylococcus aureus [5] = assay: Antibacterial activity against methicillin-resistant Staphylococcus aureus 14-5; format: functional
Staphylococcus aureus [6] = assay: Antibacterial activity against methicillin-sensitive Staphylococcus aureus 14-1; format: functional
[7] = MRT (0 to t) in Sprague-Dawley rat at 10 mg/kg, po; format: ADME, organism-based; conditions: in vivo
Staphylococcus aureus [8] = assay: Antibacterial activity against methicillin-sensitive Staphylococcus aureus 14-2; format: functional
Escherichia coli [9] = assay: Antibacterial activity against Escherichia coli 14-1; format: functional
[10] = MRT (0 to t) in Sprague-Dawley rat at 2 mg/kg, iv; format: ADME, organism-based; conditions: in vivo
[11] = Half life in Sprague-Dawley rat at 2 mg/kg, iv; format: ADME, organism-based; conditions: in vivo
[12] = tested on: Staphylococcus epidermidis; assay: Antibacterial activity against methicillin-sensitive Staphylococcus epidermidis 14-1; format: functional
[13] = tested on: Staphylococcus epidermidis; assay: Antibacterial activity against methicillin-sensitive Staphylococcus epidermidis 14-2; format: functional
Staphylococcus aureus [14] = assay: Antibacterial activity against methicillin-resistant Staphylococcus aureus 14-2; format: functional
[15] = Tmax in Sprague-Dawley rat at 10 mg/kg, po; format: ADME, organism-based; conditions: in vivo
Enterococcus faecalis [16] = assay: Antibacterial activity against Enterococcus faecalis 14-2; format: functional
Rattus norvegicus = assay: Volume of distribution at steady state in Sprague-Dawley rat at 10 mg/kg, po; format: ADME, organism-based; conditions: in vivo
[17] = Clearance in Sprague-Dawley rat at 10 mg/kg, po; format: ADME, organism-based; conditions: Sprague-Dawley, in vivo
Staphylococcus aureus [18] = assay: Antibacterial activity against methicillin-resistant Staphylococcus aureus 14-1; format: functional
[19] = Volume of distribution at steady state in Sprague-Dawley rat at 2 mg/kg, iv; format: ADME, organism-based; conditions: in vivo, read-out: Vdss
Enterococcus faecalis [20] = assay: Antibacterial activity against Enterococcus faecalis 14-1; format: functional
[21] = tested on: Staphylococcus epidermidis; assay: Antibacterial activity against methicillin-resistant Staphylococcus epidermidis 14-1; format: functional
[22] = tested on: Staphylococcus epidermidis; assay: Antibacterial activity against methicillin-sensitive Staphylococcus epidermidis 14-3; format: functional
[23] = tested on: Staphylococcus epidermidis; assay: Antibacterial activity against methicillin-resistant Staphylococcus epidermidis 14-4; format: functional
[24] = Half life in Sprague-Dawley rat at 10 mg/kg, po; format: ADME, organism-based; conditions: Sprague-Dawley, in vivo
[25] = Oral bioavailability in Sprague-Dawley rat at 10 mg/kg; format: ADME, organism-based; conditions: in vivo
Escherichia coli [26] = assay: Antibacterial activity against Escherichia coli 14-2 expressing extended-spectrum beta-lactamase; format: functional
[27] = Tmax in Sprague-Dawley rat at 2 mg/kg, iv; format: ADME, organism-based; conditions: in vivo
Staphylococcus aureus [28] = assay: Antibacterial activity against methicillin-resistant Staphylococcus aureus 14-4; format: functional
Enterococcus faecalis [29] = assay: Antibacterial activity against Enterococcus faecalis 14-3; format: functional
[30] = Cmax in Sprague-Dawley rat at 10 mg/kg, po; format: ADME, organism-based; design: dose 10 mg/kg, route oral; conditions: in vivo
[31] = AUC (0 to t) in Sprague-Dawley rat at 10 mg/kg, po; format: ADME, organism-based; conditions: in vivo
[32] = AUC (0 to t) in Sprague-Dawley rat at 2 mg/kg, iv; format: ADME, organism-based; conditions: Sprague-Dawley, in vivo
[33] = tested on: Staphylococcus epidermidis; assay: Antibacterial activity against methicillin-resistant Staphylococcus epidermidis 14-3; format: functional
[34] = tested on: Staphylococcus epidermidis; assay: Antibacterial activity against methicillin-resistant Staphylococcus epidermidis 14-2; format: functional
[35] = AUC (0 to infinity) in Sprague-Dawley rat at 2 mg/kg, iv; format: ADME, organism-based; design: dose 2 mg/kg, route intravenous, time infinity; conditions: Sprague-Dawley, in vivo
Staphylococcus aureus [36] = assay: Antibacterial activity against methicillin-sensitive Staphylococcus aureus 14-4; format: functional
Staphylococcus aureus [37] = assay: Antibacterial activity against methicillin-sensitive Staphylococcus aureus 14-3; format: functional
[38] = AUC (0 to infinity) in Sprague-Dawley rat at 10 mg/kg, po; format: ADME, organism-based; design: dose 10 mg/kg, time infinity, route oral; conditions: Sprague-Dawley, in vivo
[39] = Clearance in Sprague-Dawley rat at 2 mg/kg, iv; format: ADME, organism-based; conditions: in vivo

SMILES | MIC (Escherichia coli [1]) [µg/mL] | MIC (Enterococcus faecalis [2]) [µg/mL] | MIC (Escherichia coli [4]) [µg/mL] | MIC (Staphylococcus aureus [5]) [µg/mL] | MIC (Staphylococcus aureus [6]) [µg/mL] | MIC (Staphylococcus aureus [8]) [µg/mL] | MIC (Escherichia coli [9]) [µg/mL] | MIC [12] [µg/mL] | MIC [13] [µg/mL] | MIC (Staphylococcus aureus [14]) [µg/mL] | MIC (Enterococcus faecalis [16]) [µg/mL] | MIC (Staphylococcus aureus [18]) [µg/mL] | MIC (Enterococcus faecalis [20]) [µg/mL] | MIC [21] [µg/mL] | MIC [22] [µg/mL] | MIC [23] [µg/mL] | MIC (Escherichia coli [26]) [µg/mL] | MIC (Staphylococcus aureus [28]) [µg/mL] | MIC (Enterococcus faecalis [29]) [µg/mL] | MIC [33] [µg/mL] | also measured
CCCC[C@H](CN(O)C=O)C(=O)N1CC2(CC2)C[C@H]1C(=O)Nc1ccc(F)c[n+]1[O-] | 1 (≈ 2.37 µM) | 128 (≈ 303 µM) | 64 (≈ 151 µM) | 0.125 (≈ 0.296 µM) | 0.125 (≈ 0.296 µM) | 0.125 (≈ 0.296 µM) | 128 (≈ 303 µM) | 0.03 (≈ 0.071 µM) | 0.125 (≈ 0.296 µM) | 0.25 (≈ 0.592 µM) | 0.5 (≈ 1.18 µM) | 0.25 (≈ 0.592 µM) | 0.25 (≈ 0.592 µM) | 0.03 (≈ 0.071 µM) | 0.03 (≈ 0.071 µM) | 0.125 (≈ 0.296 µM) | 64 (≈ 151 µM) | 0.125 (≈ 0.296 µM) | 0.5 (≈ 1.18 µM) | 0.03 (≈ 0.071 µM) | Cmax [3]: 1780 ng/mL; MRT last [7]: 2.04 h; MRT last [10]: 1.65 h; half-life [11]: 3.63 h; Tmax [15]: 0.25 h; Vdss (Rattus norvegicus): 39.4 L/kg; CL/F [17]: 91.3 mL/min/kg; Vd [19]: 2.6 L/kg; half-life [24]: 4.94 h; bioavailability [25]: 31%; Tmax [27]: 8.4 min; Cmax [30]: 1850 ng/mL; AUC(0-t) [31]: 1960 ng·h/mL; AUC(0-t) [32]: 1260 ng·h/mL; MIC [34]: 0.06 µg/mL (≈ 0.142 µM); AUC(0-inf) [35]: 1280 ng·h/mL; MIC (Staphylococcus aureus [36]): 0.125 µg/mL (≈ 0.296 µM); MIC (Staphylococcus aureus [37]): 0.125 µg/mL (≈ 0.296 µM); AUC(0-inf) [38]: 1990 ng·h/mL; clearance [39]: 26.2 mL/min/kg
CCCC[C@H](CN(O)C=O)C(=O)N1CC2(CC2)C[C@H]1c1nnc2ccccn12 | 2 (≈ 5.19 µM) | 8 (≈ 20.8 µM) | 128 (≈ 332 µM) | 1 (≈ 2.59 µM) | 1 (≈ 2.59 µM) | 1 (≈ 2.59 µM) | 128 (≈ 332 µM) | 0.25 (≈ 0.649 µM) | 0.5 (≈ 1.3 µM) | 1 (≈ 2.59 µM) | 8 (≈ 20.8 µM) | 1 (≈ 2.59 µM) | 4 (≈ 10.4 µM) | 0.5 (≈ 1.3 µM) | 0.5 (≈ 1.3 µM) | 1 (≈ 2.59 µM) | 128 (≈ 332 µM) | 1 (≈ 2.59 µM) | 8 (≈ 20.8 µM) | 0.25 (≈ 0.649 µM) | MIC [34]: 0.5 µg/mL (≈ 1.3 µM); MIC (Staphylococcus aureus [36]): 1 µg/mL (≈ 2.59 µM); MIC (Staphylococcus aureus [37]): 1 µg/mL (≈ 2.59 µM)
CCCC[C@H](CN(O)C=O)C(=O)N1CC2(CC2)C[C@H]1C(=O)Nc1cccc(Nc2ncccn2)c1 | 1 (≈ 2.08 µM) | 1 (≈ 2.08 µM) | 128 (≈ 266 µM) | 0.125 (≈ 0.26 µM) | 0.25 (≈ 0.52 µM) | 0.25 (≈ 0.52 µM) | 128 (≈ 266 µM) | 0.125 (≈ 0.26 µM) | 0.25 (≈ 0.52 µM) | 0.25 (≈ 0.52 µM) | 1 (≈ 2.08 µM) | 0.25 (≈ 0.52 µM) | 0.5 (≈ 1.04 µM) | 0.125 (≈ 0.26 µM) | 0.125 (≈ 0.26 µM) | 0.25 (≈ 0.52 µM) | 64 (≈ 133 µM) | 0.25 (≈ 0.52 µM) | 1 (≈ 2.08 µM) | 0.06 (≈ 0.125 µM) | MIC [34]: 0.25 µg/mL (≈ 0.52 µM); MIC (Staphylococcus aureus [36]): 0.125 µg/mL (≈ 0.26 µM); MIC (Staphylococcus aureus [37]): 0.25 µg/mL (≈ 0.52 µM)
CCCC[C@H](CN(O)C=O)C(=O)N1CC2(CC2)C[C@H]1c1nnc(-c2ccccn2)o1 | 0.5 (≈ 1.21 µM) | 8 (≈ 19.3 µM) | 64 (≈ 155 µM) | 2 (≈ 4.84 µM) | 4 (≈ 9.67 µM) | 2 (≈ 4.84 µM) | 128 (≈ 310 µM) | 1 (≈ 2.42 µM) | 1 (≈ 2.42 µM) | 4 (≈ 9.67 µM) | 8 (≈ 19.3 µM) | 4 (≈ 9.67 µM) | 4 (≈ 9.67 µM) | 1 (≈ 2.42 µM) | 0.5 (≈ 1.21 µM) | 4 (≈ 9.67 µM) | 64 (≈ 155 µM) | 4 (≈ 9.67 µM) | 8 (≈ 19.3 µM) | 0.5 (≈ 1.21 µM) | MIC [34]: 0.5 µg/mL (≈ 1.21 µM); MIC (Staphylococcus aureus [36]): 2 µg/mL (≈ 4.84 µM); MIC (Staphylococcus aureus [37]): 2 µg/mL (≈ 4.84 µM)
